Measurements as given in patent publication US20240269238A1, “Therapeutic Regimens and Methods for Reducing Body Weight in a Subject with Fatty Liver Disease using a GLP-1R and GCGR Agonist” (Spitfire Pharma LLC, priority 2022, published 2024).

System: alanine aminotransferase (ALT) and corrected T1 (cT1)
Test: Phase 1b 24-week NAFLD study (Example 3): liver inflammation by ALT levels and cT1 imaging
Format: in vivo, human
Conditions: all doses, week 24
Description: Provided herein is disclosure of a 12-week extension study of the study provided in Example 1, providing a 24-week a Phase 1b, randomized, double-blind, placebo-controlled study to assess the effects of pemvidutide (also termed herein as ALT-801), the safety of pemvidutide and effects on weight loss, hepatic fat fraction, anthropometric parameters, lipid metabolism, as well as inflammatory, fibrosis and other markers in diabetic and non-diabetic (type 2 diabetes) overweight and obese (BMI≥28.0 kg/m^2) subjects with NAFLD (defined as liver fat content (LFC) by MRI-PDFF ≥10%; absence of significant fibrosis, defined as FibroScan® LSM ≤10 kPa), alanine aminotransferase (ALT) and aspartate aminotransferase (AST) laboratory values of ≤75 IU/L and HbA1c <9.5. Men and women aged 18-65 years were studied. […]
The primary endpoint of this study was a reduction in liver fat content (LFC) by MRI-PDFF at Week 24 compared to Week 0 (zero). […] Adverse events (AEs), including serious and severe AEs, AEs leading to discontinuation, GI tolerability, vital signs, and glycemic control including fasting glucose and HbA1c levels were also measured. […]

CC[C@H](C)[C@H](NC(=O)[C@H](Cc1ccccc1)NC(=O)[C@H](CCC(=O)O)NC(=O)[C@@H]1CCCCNC(=O)CC[C@H](NC(=O)[C@H](CC(=O)O)NC(=O)[C@H](CC(C)C)NC(=O)[C@H](Cc2ccc(O)cc2)NC(=O)[C@H](CCCCN)NC(=O)[C@H](CO)NC(=O)[C@H](Cc2ccc(O)cc2)NC(=O)[C@H](CC(=O)O)NC(=O)[C@H](CO)NC(=O)[C@@H](NC(=O)[C@H](Cc2ccccc2)NC(=O)[C@@H](NC(=O)CNC(=O)[C@H](CCC(N)=O)NC(=O)C(C)(C)NC(=O)[C@@H](N)Cc2c[nH]cn2)[C@@H](C)O)[C@H](C)O)C(=O)N[C@@H](CCCCNC(=O)C2O[C@@H](OCCCCCCCCCCCCCCCCCC(=O)O)C(O)C(O)[C@@H]2O)C(=O)N[C@@H](C)C(=O)N[C@@H](C)C(=O)N1)C(=O)N[C@@H](CCC(N)=O)C(=O)N[C@@H](Cc1c[nH]c2ccccc12)C(=O)N[C@@H](CC(C)C)C(=O)N[C@@H](CC(C)C)C(=O)N[C@@H](CCC(N)=O)C(=O)N[C@H](C(N)=O)[C@@H](C)O (some centres unmarked) [ALT-801, Pemvidutide]
ALT levels: robust reduction of ALT levels
cT1 response (80 ms reduction vs baseline): high rates of cT1 response
